# Key:
# Test in all cases: NanoBRET K192
# Format in all cases: cell-based
# PRKX = target: T1, PRKX (Homo sapiens, UniProt P51817); details: HEK293
# T1 construct: purchased Promega (NanoBRET Target Engagement K192 Kinase Selectivity System)
# In short: (§1)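 HEK293 cells were transfected overnight with NanoLuc–kinase fusion vectors, then treated for 2 h at 37 °C with compound (added as 100 μM working solution) plus K10 tracer. BRET was read at 450/610 nm after substrate and extracellular inhibitor, and fractional occupancy was calculated against no-compound controls.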
# IGF1R = target: T2, IGF1R (Homo sapiens, UniProt P08069); details: HEK293
# T2 construct: host or cells: HEK293
# In short: as §1
# LIMK2 = target: T3, LIMK2 (Homo sapiens, UniProt P53671); details: HEK293
# T3 construct: purchased Promega (NanoBRET Target Engagement K192 Kinase Selectivity System)
# In short: as §1
# RPS6KA1 = target: T4, RPS6KA1 (Homo sapiens, UniProt Q15418); details: HEK293
# T4 construct: purchased Promega (NanoBRET Target Engagement K192 Kinase Selectivity System)
# In short: as §1
# CDKL5 = target: T5, CDKL5 (Homo sapiens, UniProt O76039); details: HEK293
# T5 construct: purchased Promega (NanoBRET Target Engagement K192 Kinase Selectivity System)
# In short: as §1
# SIK3 = target: T6, SIK3 (Homo sapiens, UniProt Q9Y2K2); details: HEK293
# T6 construct: purchased Promega (NanoBRET Target Engagement K192 Kinase Selectivity System)
# In short: as §1
# PTK6 = target: T7, PTK6 (Homo sapiens, UniProt Q13882); details: HEK293
# T7 construct: purchased Promega (NanoBRET Target Engagement K192 Kinase Selectivity System)
# In short: as §1
# FGFR2 = target: T8, FGFR2 (Homo sapiens, UniProt P21802); details: HEK293
# T8 construct: host or cells: HEK293
# In short: as §1
# PLK2 = target: T9, PLK2 (Homo sapiens, UniProt Q9NYY3); details: HEK293
# T9 construct: purchased Promega (NanoBRET Target Engagement K192 Kinase Selectivity System)
# In short: as §1
# BRSK2 = target: T10, BRSK2 (Homo sapiens, UniProt Q8IWQ3); details: HEK293
# T10 construct: purchased Promega (NanoBRET Target Engagement K192 Kinase Selectivity System)
# In short: as §1
# CSNK1G2 = target: T11, CSNK1G2 (Homo sapiens, UniProt P78368); details: HEK293
# T11 construct: purchased Promega (NanoBRET Target Engagement K192 Kinase Selectivity System)
# In short: as §1
# SBK3 = target: T12, SBK3 (Homo sapiens, UniProt P0C264); details: HEK293
# T12 construct: purchased Promega (NanoBRET Target Engagement K192 Kinase Selectivity System)
# In short: as §1
# GAK = target: T13, GAK (Homo sapiens, UniProt O14976); details: HEK293
# T13 construct: purchased Promega (NanoBRET Target Engagement K192 Kinase Selectivity System)
# In short: as §1
# RPS6KA6 = target: T14, RPS6KA6 (Homo sapiens, UniProt Q9UK32); details: HEK293
# T14 construct: purchased Promega (NanoBRET Target Engagement K192 Kinase Selectivity System)
# In short: as §1
# AKT2 = target: T15, AKT2 (Homo sapiens, UniProt P31751); details: HEK293
# T15 construct: purchased Promega (NanoBRET Target Engagement K192 Kinase Selectivity System)
# In short: as §1
# TNK2 = target: T16, TNK2 (Homo sapiens, UniProt Q07912); details: HEK293
# T16 construct: purchased Promega (NanoBRET Target Engagement K192 Kinase Selectivity System)
# In short: as §1
# FYN = target: T17, FYN (Homo sapiens, UniProt P06241); details: HEK293
# T17 construct: purchased Promega (NanoBRET Target Engagement K192 Kinase Selectivity System)
# In short: as §1
# AURKC = target: T18, AURKC (Homo sapiens, UniProt Q9UQB9); details: HEK293
# T18 construct: purchased Promega (NanoBRET Target Engagement K192 Kinase Selectivity System)
# In short: as §1
# MAPK9 = target: T19, MAPK9 (Homo sapiens, UniProt P45984); details: HEK293
# T19 construct: purchased Promega (NanoBRET Target Engagement K192 Kinase Selectivity System)
# In short: as §1
# TYRO3 = target: T20, TYRO3 (Homo sapiens, UniProt Q06418); details: HEK293
# T20 construct: purchased Promega (NanoBRET Target Engagement K192 Kinase Selectivity System)
# In short: as §1
# NEK4 = target: T21, NEK4 (Homo sapiens, UniProt P51957); details: HEK293
# T21 construct: purchased Promega (NanoBRET Target Engagement K192 Kinase Selectivity System)
# In short: as §1
# AURKB = target: T22, AURKB (Homo sapiens, UniProt Q96GD4); details: HEK293
# T22 construct: purchased Promega (NanoBRET Target Engagement K192 Kinase Selectivity System)
# In short: as §1
# FGFR1 = target: T23, FGFR1 (Homo sapiens, UniProt P11362); details: HEK293
# T23 construct: purchased Promega (NanoBRET Target Engagement K192 Kinase Selectivity System)
# In short: as §1
# PRKACA = target: T24, PRKACA (Homo sapiens, UniProt P17612); details: HEK293
# T24 construct: purchased Promega (NanoBRET Target Engagement K192 Kinase Selectivity System)
# In short: as §1
# CLK1 = target: T25, CLK1 (Homo sapiens, UniProt P49759)
# T25 construct: purchased Promega (NanoBRET Target Engagement K192 Kinase Selectivity System)
# In short: as §1
# CSNK1A1L = target: T26, CSNK1A1L (Homo sapiens, UniProt Q8N752); details: HEK293
# T26 construct: purchased Promega (NanoBRET Target Engagement K192 Kinase Selectivity System)
# In short: as §1
# TXK = target: T27, TXK (Homo sapiens, UniProt P42681); details: HEK293
# T27 construct: host or cells: HEK293
# In short: as §1
# MKNK2 = target: T28, MKNK2 (Homo sapiens, UniProt Q9HBH9); details: HEK293
# T28 construct: purchased Promega (NanoBRET Target Engagement K192 Kinase Selectivity System)
# In short: as §1
# T25 sequence (P49759 whole entry): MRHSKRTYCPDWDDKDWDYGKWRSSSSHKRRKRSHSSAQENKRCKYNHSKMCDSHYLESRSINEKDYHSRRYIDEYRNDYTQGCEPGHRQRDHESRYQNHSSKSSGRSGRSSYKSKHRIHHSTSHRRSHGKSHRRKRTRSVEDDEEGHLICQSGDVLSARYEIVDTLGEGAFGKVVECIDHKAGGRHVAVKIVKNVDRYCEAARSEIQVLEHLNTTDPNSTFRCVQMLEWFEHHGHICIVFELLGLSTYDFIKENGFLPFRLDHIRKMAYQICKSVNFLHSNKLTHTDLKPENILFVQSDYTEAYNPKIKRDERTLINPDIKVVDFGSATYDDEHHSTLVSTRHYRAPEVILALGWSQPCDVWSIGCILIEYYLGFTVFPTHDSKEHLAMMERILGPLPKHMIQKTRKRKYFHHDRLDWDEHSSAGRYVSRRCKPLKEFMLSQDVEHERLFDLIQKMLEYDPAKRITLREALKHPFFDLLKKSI
# T8 sequence (P21802 22-821): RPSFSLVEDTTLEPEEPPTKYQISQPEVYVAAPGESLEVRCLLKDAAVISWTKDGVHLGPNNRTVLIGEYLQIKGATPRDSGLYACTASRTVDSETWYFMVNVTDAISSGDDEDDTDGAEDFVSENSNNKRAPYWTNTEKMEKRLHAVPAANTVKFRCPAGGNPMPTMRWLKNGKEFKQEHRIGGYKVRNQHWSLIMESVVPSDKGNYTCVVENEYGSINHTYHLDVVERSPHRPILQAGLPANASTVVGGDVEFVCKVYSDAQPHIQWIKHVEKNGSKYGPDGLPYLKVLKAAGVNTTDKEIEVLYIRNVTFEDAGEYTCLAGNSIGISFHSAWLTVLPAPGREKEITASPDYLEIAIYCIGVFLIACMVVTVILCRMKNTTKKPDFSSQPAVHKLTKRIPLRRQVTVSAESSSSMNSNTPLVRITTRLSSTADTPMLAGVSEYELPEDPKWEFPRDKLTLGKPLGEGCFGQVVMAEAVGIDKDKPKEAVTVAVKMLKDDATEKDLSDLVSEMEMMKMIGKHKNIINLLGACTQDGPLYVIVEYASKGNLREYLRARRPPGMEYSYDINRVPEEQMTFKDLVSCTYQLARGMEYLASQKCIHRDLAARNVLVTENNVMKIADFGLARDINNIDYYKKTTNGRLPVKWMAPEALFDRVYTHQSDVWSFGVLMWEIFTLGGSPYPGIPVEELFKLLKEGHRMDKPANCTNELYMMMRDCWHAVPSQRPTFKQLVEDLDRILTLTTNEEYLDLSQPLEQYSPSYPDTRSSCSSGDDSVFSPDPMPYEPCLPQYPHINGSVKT
# T14 sequence (Q9UK32 whole entry): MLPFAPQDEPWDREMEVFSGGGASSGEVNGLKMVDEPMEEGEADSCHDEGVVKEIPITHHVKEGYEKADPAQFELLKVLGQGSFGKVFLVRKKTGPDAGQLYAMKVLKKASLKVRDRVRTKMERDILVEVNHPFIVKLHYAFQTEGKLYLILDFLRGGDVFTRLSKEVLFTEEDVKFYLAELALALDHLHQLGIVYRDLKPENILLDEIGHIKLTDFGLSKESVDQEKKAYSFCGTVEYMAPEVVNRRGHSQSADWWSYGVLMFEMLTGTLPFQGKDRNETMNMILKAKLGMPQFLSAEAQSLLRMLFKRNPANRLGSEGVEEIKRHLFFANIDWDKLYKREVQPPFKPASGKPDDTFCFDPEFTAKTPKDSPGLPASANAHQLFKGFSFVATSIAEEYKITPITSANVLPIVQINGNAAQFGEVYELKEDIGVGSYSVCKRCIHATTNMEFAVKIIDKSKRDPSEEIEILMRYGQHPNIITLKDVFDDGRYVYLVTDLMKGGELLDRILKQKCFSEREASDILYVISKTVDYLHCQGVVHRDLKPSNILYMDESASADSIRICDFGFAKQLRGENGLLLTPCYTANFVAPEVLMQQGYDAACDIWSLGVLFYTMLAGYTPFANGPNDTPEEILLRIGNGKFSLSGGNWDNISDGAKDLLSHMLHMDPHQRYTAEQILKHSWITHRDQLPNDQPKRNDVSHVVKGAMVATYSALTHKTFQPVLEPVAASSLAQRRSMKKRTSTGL
# T3 sequence (P53671 whole entry): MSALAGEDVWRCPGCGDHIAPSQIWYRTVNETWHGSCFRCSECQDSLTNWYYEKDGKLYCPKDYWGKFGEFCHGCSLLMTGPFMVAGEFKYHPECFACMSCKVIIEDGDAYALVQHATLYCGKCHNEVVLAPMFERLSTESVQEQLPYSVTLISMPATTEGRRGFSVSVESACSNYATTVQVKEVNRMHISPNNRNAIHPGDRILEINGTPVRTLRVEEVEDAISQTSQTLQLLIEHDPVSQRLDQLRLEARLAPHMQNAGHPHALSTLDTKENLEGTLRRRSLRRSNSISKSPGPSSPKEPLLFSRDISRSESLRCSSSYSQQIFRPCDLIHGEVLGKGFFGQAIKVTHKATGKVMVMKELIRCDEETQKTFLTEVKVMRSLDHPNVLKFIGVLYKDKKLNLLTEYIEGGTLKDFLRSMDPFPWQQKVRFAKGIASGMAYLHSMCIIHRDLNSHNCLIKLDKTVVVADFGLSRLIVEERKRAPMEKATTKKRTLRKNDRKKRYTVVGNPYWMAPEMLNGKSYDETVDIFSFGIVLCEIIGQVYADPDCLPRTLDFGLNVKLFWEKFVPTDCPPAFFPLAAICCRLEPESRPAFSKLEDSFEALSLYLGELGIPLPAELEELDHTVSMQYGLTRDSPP
# T15 sequence (P31751 whole entry): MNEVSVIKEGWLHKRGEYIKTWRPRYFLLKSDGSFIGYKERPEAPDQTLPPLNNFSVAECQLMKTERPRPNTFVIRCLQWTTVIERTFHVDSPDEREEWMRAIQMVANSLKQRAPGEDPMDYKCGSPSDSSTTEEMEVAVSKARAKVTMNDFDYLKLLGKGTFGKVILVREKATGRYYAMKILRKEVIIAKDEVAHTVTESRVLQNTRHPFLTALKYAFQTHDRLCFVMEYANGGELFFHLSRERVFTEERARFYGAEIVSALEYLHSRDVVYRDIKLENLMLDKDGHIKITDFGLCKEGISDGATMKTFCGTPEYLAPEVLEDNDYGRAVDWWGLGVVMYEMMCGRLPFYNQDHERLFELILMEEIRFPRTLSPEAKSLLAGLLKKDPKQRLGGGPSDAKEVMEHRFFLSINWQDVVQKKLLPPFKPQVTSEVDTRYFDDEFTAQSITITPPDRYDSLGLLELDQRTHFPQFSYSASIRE
# T26 sequence (Q8N752 whole entry): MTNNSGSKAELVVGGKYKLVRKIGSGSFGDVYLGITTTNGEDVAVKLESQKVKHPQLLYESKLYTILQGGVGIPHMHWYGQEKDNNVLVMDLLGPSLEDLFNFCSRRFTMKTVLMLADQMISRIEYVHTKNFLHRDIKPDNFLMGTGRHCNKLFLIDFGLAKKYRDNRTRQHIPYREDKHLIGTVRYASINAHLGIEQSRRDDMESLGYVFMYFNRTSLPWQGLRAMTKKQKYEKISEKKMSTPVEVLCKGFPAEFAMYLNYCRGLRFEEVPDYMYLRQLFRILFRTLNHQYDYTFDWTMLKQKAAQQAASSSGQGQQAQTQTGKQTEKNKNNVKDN
# T18 sequence (Q9UQB9 whole entry): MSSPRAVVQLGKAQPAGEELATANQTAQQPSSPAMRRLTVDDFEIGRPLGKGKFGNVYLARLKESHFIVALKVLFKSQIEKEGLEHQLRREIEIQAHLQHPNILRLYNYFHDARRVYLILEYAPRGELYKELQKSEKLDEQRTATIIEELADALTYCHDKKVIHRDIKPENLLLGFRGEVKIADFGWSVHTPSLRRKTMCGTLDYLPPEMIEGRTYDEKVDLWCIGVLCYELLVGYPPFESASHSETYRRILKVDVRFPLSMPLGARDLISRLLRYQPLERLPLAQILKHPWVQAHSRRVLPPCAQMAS
# T21 sequence (P51957 whole entry): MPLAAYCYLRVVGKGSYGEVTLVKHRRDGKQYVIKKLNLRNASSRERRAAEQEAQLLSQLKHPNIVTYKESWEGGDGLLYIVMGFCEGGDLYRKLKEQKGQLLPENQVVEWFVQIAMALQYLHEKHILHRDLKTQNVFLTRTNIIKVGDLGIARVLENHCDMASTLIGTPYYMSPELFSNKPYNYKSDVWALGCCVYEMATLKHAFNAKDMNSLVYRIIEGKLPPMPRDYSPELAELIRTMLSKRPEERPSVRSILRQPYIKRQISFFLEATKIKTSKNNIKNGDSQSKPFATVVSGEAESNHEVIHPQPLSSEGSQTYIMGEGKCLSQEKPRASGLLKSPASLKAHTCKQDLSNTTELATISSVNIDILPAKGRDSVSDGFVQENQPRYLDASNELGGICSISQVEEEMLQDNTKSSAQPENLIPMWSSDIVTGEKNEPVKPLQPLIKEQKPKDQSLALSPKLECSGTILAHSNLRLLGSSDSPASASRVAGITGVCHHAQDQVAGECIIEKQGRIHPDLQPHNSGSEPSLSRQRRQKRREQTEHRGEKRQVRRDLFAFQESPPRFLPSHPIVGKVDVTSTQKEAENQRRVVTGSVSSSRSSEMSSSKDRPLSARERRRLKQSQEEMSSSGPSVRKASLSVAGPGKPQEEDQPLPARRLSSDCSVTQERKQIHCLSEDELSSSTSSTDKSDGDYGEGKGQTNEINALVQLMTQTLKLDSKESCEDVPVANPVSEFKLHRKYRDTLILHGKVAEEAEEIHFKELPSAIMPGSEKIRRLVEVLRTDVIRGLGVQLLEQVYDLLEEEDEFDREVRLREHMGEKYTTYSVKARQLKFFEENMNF
# T12 sequence (P0C264 whole entry): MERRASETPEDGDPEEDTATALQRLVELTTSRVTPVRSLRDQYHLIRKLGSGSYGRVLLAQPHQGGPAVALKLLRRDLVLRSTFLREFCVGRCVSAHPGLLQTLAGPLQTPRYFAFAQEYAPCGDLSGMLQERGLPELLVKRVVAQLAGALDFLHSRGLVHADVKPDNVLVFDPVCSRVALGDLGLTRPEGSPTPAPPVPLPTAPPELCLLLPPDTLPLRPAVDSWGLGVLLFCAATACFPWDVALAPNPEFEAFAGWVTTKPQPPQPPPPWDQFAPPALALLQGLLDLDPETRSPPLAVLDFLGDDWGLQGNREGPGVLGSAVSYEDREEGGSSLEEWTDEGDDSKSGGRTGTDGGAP
smiles,measurement,setting,value
"CCC(=O)Nc1cc(Nc2cc(NC3CC3)n3ncc(C#N)c3n2)c(F)cc1N1CCC[C@H](NC)C1 [Compound 2, (S)-N-(5-((3-cyano-7-(cyclopropylamino)pyrazolo[1,5-a]pyrimidin-5-yl)amino)-4-fluoro-2-(3-(methylamino)piperidin-1-yl)phenyl)propionamide]",receptor occupancy at 10 µM,PRKX,10.6%
same,receptor occupancy at 10 µM,IGF1R,-2.6%
same,receptor occupancy at 10 µM,LIMK2,1.1%
same,receptor occupancy at 10 µM,RPS6KA1,7.1%
same,receptor occupancy at 10 µM,CDKL5,17.2%
same,receptor occupancy at 10 µM,SIK3,2.7%
same,receptor occupancy at 10 µM,PTK6,4.4%
same,receptor occupancy at 10 µM,FGFR2,-2.9%
same,receptor occupancy at 10 µM,PLK2,29.6%
same,receptor occupancy at 10 µM,BRSK2,13.6%
same,receptor occupancy at 10 µM,CSNK1G2,21.8%
same,receptor occupancy at 10 µM,SBK3,15.9%
same,receptor occupancy at 10 µM,GAK,3.3%
same,receptor occupancy at 10 µM,RPS6KA6,10.6%
same,receptor occupancy at 10 µM,AKT2,5.3%
same,receptor occupancy at 10 µM,TNK2,12.5%
same,receptor occupancy at 10 µM,FYN,18.1%
same,receptor occupancy at 10 µM,AURKC,4.5%
same,receptor occupancy at 10 µM,MAPK9,2.4%
same,receptor occupancy at 10 µM,TYRO3,3.9%
same,receptor occupancy at 10 µM,NEK4,7.8%
same,receptor occupancy at 10 µM,AURKB,1.4%
same,receptor occupancy at 10 µM,FGFR1,10.4%
same,receptor occupancy at 10 µM,PRKACA,11.7%
same,% occupancy at 10 μM,"CLK1; CLK1, HEK293",76%
same,receptor occupancy at 10 µM,"CLK1; HEK293, CLK1",76.2%
same,receptor occupancy at 10 µM,CSNK1A1L,1.5%
same,receptor occupancy at 10 µM,TXK,-3.2%
same,receptor occupancy at 10 µM,MKNK2,23.6%

# — PMC11397024, “Strategic Fluorination to Achieve a Potent, Selective, Metabolically Stable, and Orally Bioavailable Inhibitor of CSNK2” (Molecules, 2024)
